Laboratory results taken from US20250197351A1, “C4-CARBOXYLIC ACID-S[…] DERIVATIVES AND METHODS OF USING” (priority 2022, published 2025).
Values joined by “and” are separate entries in the source; they are usually repeats but may differ in a detail not shown here. Identical values can stand only once.

Key:
[1] = Metabolic stability / psilocin release in liver fractions; assay type: in vitro ADME, human; details: HLM and HLS9; 2.5 μM; up to 2 hours
Text: (§1) A fundamental evaluation in drug development is the assessment of absorption, distribution, metabolism, excretion, and pharmacokinetics (ADME/PK) (Eddershaw et al., 2000, Drug Discovery Today 5(9): 409-414). […] Drug stability upon exposure to human liver microsomes and liver S9 cellular fractions is a common in vitro assay to approximate in vivo, liver-based drug metabolism (Richardson et al., 2016 Drug Metabolism Letters 10:83-90). First-pass metabolism is also often approximated in vitro using intestinal microsome and cellular S9 fractions (Hatley et al., 2017, Biopharmaceuticals & Drug Disposition, 38(2):155-160). […] Supernatants were analyzed for the presence of candidate prodrugs (parent molecule) and psilocin (the predicted metabolite) using Orbitrap LC-MS (Thermo Scientific) using previously described methods (Menéndez-Perdomo et al., 2021, J Mass Spectrom, 56: e4683). […] Assay concentrations (M) of both parent ‘prodrug’ molecule and psilocin metabolite, as quantified through LC-MS using routine standard curve procedures, were plotted as functions of assay time (minutes). The metabolism rate (T1/2) was determined from the metabolism curve plot using the one phase decay feature of GraphPad PRISM software (Version 9.2.0). The quantity of parent prodrug at time zero was set as 100%. […]

[2] = Stability in enzyme-free control buffer; assay type: in vitro ADME; details: 50 mM potassium phosphate buffer pH 7.4
Text: A fundamental evaluation in drug development is the assessment of absorption, distribution, metabolism, excretion, and pharmacokinetics (ADME/PK) (Eddershaw et al., 2000, Drug Discovery Today 5(9): 409-414). […] Drug stability upon exposure to human liver microsomes and liver S9 cellular fractions is a common in vitro assay to approximate in vivo, liver-based drug metabolism (Richardson et al., 2016 Drug Metabolism Letters 10:83-90). First-pass metabolism is also often approximated in vitro using intestinal microsome and cellular S9 fractions (Hatley et al., 2017, Biopharmaceuticals & Drug Disposition, 38(2):155-160). […] Supernatants were analyzed for the presence of candidate prodrugs (parent molecule) and psilocin (the predicted metabolite) using Orbitrap LC-MS (Thermo Scientific) using previously described methods (Menéndez-Perdomo et al., 2021, J Mass Spectrom, 56: e4683). […] Assay concentrations (M) of both parent ‘prodrug’ molecule and psilocin metabolite, as quantified through LC-MS using routine standard curve procedures, were plotted as functions of assay time (minutes). The metabolism rate (T1/2) was determined from the metabolism curve plot using the one phase decay feature of GraphPad PRISM software (Version 9.2.0). The quantity of parent prodrug at time zero was set as 100%.

[3] = Metabolic stability / psilocin release in serum; assay type: in vitro ADME; details: 10% human AB serum
Text: as §1

[4] = Mouse pharmacokinetic (PK) study, parent compound and psilocin metabolite in plasma; assay type: in vivo
Text: (§2) Briefly, the procedure was as follows. […] 19, 2022.

5-HT1A receptor = target: T1, 5-HT1A receptor (Homo sapiens, UniProt P08908); assay: cAMP-Glo assay of 5-HT1A receptor modulation, CHO-K1/5-HT1A/Ga15 (+5-HT1A) vs CHO-K1/Ga15 (−5-HT1A) cells; assay type: cell-based; details: +5-HT1A vs −5-HT1A CHO-K1 cells; 4 μM forskolin; increasing ligand concentration
T1 construct: host or cells: CHO-K1 (co-expressing Ga15)
T1 sequence (P08908 1-422): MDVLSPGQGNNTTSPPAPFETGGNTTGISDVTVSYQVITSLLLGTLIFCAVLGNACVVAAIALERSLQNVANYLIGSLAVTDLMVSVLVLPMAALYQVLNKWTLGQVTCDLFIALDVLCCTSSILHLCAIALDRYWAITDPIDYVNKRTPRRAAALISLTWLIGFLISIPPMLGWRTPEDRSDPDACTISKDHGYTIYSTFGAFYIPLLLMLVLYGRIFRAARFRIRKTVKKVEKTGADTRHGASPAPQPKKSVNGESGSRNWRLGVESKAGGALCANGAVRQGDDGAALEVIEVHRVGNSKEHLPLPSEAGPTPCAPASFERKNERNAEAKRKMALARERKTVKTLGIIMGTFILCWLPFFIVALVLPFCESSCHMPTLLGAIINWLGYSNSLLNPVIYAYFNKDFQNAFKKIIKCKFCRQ

[5] = target: T2, 5-HT2A receptor (5-HT2AR) (Mus musculus, UniProt P35363); assay: Drug-induced Head Twitch Response (HTR); assay type: in vivo; details: 1 mg/kg i.p., 15-to-30-minute window post-drug, relative to vehicle
T2 construct: host or cells: C57BL/6 mice, in vivo (neuronal receptor)
T2 sequence (P35363 whole entry): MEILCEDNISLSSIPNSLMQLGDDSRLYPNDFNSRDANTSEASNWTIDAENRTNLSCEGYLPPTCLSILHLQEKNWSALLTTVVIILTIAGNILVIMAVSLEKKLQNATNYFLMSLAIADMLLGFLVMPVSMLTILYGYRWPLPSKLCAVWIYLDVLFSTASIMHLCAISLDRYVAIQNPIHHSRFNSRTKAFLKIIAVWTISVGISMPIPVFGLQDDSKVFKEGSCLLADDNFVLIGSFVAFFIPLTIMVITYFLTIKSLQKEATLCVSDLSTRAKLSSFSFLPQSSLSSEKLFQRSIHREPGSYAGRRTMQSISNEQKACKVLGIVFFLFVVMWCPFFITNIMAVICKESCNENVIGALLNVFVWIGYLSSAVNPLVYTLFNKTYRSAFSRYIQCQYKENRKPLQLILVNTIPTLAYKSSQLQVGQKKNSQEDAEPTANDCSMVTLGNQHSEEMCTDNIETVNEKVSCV

[6] = Dosing solution concentration by LC-MS (nominal vs measured); assay type: physicochemical
Procedure: as §2
Pharmacokinetic (PK) evaluations were performed in the same manner as described in Example 1, except compound C(IV) was used in place of compound C(V). […] Thus, only psilocin PK analysis was performed. […] Table 46 summarizes these “measured” concentrations along with corresponding “nominal” concentrations for each dosing solution. Results for psilocin PK following C(IV) administration are found in Tables 47A-47B (0.293 mg/kg IV dose), Tables 48A-48B (0.275 mg/kg oral dose), Tables 49A-49B (0.789 mg/kg oral dose), Tables 50A-50B (2.52 mg/kg oral dose), Table 51 (comparative summary for IV data), Table 52 (comparative summary for oral data), Table 53A (psilocin exposure) and FIGS. 10H (i) and 10H (ii).

For CN(C)CCc1c[nH]c2cccc(OP(=O)(O)O)c12 [psilocybin, reference compound], the “Metabolic stability and conversion to psilocin in liver fractions” value [1] was “stable in liver fractions with no conversion to psilocin”, the “Stability in assay buffer” value [2] was “stability of psilocybin was confirmed in assay buffer” and the “Metabolic stability and conversion to psilocin in serum” value [3] was “stable in serum with no conversion to psilocin”. For the same compound, the “Detection of parent compound in plasma after i.v. administration” value ([4]; mouse, 1 mg/kg i.v.) was “only detectable in i.v. administered animals”, the “Plasma concentration of parent compound” value ([4]; mouse, 1 mg/kg i.v., 0.25 h, individual animals, BLQ = below 0.5 ng/mL (C(V)), 1 mg/kg) was 3.32 ng/mL and 8.95 ng/mL and 27.2 ng/mL and the “Plasma concentration of parent compound” value ([4]; mouse, 1 mg/kg i.v., 0.5 h, individual animals, BLQ = below 0.5 ng/mL (C(V)), 1 mg/kg) was “No Peak and 2.35 ng/mL and 6.21 ng/mL”. For the same compound, the “Plasma concentration of parent compound” value ([4]; mouse, 1 mg/kg i.v., 1 h, individual animals, 1 mg/kg) was “No Peak”, the “Plasma concentration of parent compound” value ([4]; mouse, 1 mg/kg i.v., 2 h, individual animals) was “No Peak” and the “Plasma concentration of parent compound” value ([4]; mouse, 1 mg/kg i.v., 4 h, individual animals) was “No Peak”. The “Plasma concentration of parent compound” value ([4]; mouse, 1 mg/kg i.v., 6 h, individual animals) was “No Peak”, the “Plasma concentration of parent compound” value ([4]; mouse, 1 mg/kg i.v., 8 h, individual animals, 1 mg/kg) was “No Peak” and the “Detection of parent compound in plasma after oral administration” value ([4]; mouse, orally administered, any dose (1, 3, 10 mg/kg)) was “not detectable”. The “Plasma concentration of psilocin” value ([4]; mouse, prodrug 1 mg/kg p.o. (psilocybin: 1.56 mg/kg), 24 h, individual animals, BLQ = below 0.2 ng/mL) was “BLQ” and the “Plasma concentration of psilocin” value ([4]; mouse, prodrug 3 mg/kg p.o., 24 h, individual animals, BLQ = below 0.2 ng/mL) was “BLQ”.

In the case of CN(C)CCc1c[nH]c2cccc(OC(=O)CC3CC3)c12 [C(IV)], the “5-HT1A receptor modulation (reduction of forskolin-induced cAMP)” value (5-HT1A receptor) is reported as “significant receptor modulation”, the “Head Twitch Response (HTR) incidence” value [5] is reported as “Elevated incidences of HTR” and the “Plasma concentration of psilocin” value ([4]; 0.275 mg/kg oral C(IV), 4 h, individual mice, LLOQ 0.2 ng/mL) is reported as “BLQ”. For the same compound, the “Plasma concentration of psilocin” value ([4]; 0.275 mg/kg oral C(IV), 6 h, individual mice, LLOQ 0.2 ng/mL) was “BLQ”, the “Plasma concentration of psilocin” value ([4]; 0.275 mg/kg oral C(IV), 8 h, individual mice, LLOQ 0.2 ng/mL) was “BLQ” and the “Plasma concentration of psilocin” value ([4]; 0.275 mg/kg oral C(IV), 24 h, individual mice, LLOQ 0.2 ng/mL) was “No Peak”. The “Plasma concentration of psilocin” value ([4]; 0.293 mg/kg i.v. C(IV), 8 h, individual mice, LLOQ 0.2 ng/mL) was “No Peak and BLQ (2×)”, the “Plasma concentration of psilocin” value ([4]; 0.789 mg/kg oral C(IV), 8 h, individual mice, LLOQ 0.2 ng/mL) was “BLQ” and the “Plasma concentration of psilocin” value ([4]; 0.789 mg/kg oral C(IV), 24 h, individual mice, LLOQ 0.2 ng/mL) was “No Peak”. For the same compound, the “Plasma concentration of psilocin” value ([4]; 2.52 mg/kg oral C(IV), 24 h, individual mice, LLOQ 0.2 ng/mL) was “BLQ and No Peak (2×)”, the “Detection of parent compound in plasma” value ([4]; mouse, any animals at any dose (i.v. and oral)) was “not detectable in any animals at any dose” and the “Stability in dosing solutions” value [6] was “compound instability in dosing solutions”.
